# Results as given in PubChem BioAssay AID1259407 (Chemical Carcinogenesis Research Information System (CCRIS), 2018).
# Activity calls are given as the source filed them. The rule behind the calls is not given here.
# Tested on: CCRIS mutagenicity, Ames/micronucleus/aberration tests
# Assay: CCRIS mutagenicity studies
# [1] = Test System: AMES SALMONELLA TYPHIMURIUM, Strain/Indicator: TA98, Metabolic Activation: NONE, Method: PREINCUBATION
# [2] = Test System: AMES SALMONELLA TYPHIMURIUM, Strain/Indicator: TA100, Metabolic Activation: NONE, Method: PREINCUBATION
# [3] = Test System: AMES SALMONELLA TYPHIMURIUM, Strain/Indicator: TA1535, Metabolic Activation: NONE, Method: PREINCUBATION
# [4] = Test System: AMES SALMONELLA TYPHIMURIUM, Strain/Indicator: TA1537, Metabolic Activation: NONE, Method: PREINCUBATION
# [5] = End Point: IN VITRO CHROMOSOMAL ABERRATIONS, Test System: CHL CELLS, Metabolic Activation: RAT, LIVER, S-9, SODIUM PHENOBARBITAL AND 5,6-BENZOFLAVONE
# [6] = Test System: AMES SALMONELLA TYPHIMURIUM, Strain/Indicator: TA100, Metabolic Activation: NONE, Method: STANDARD PLATE
# [7] = Test System: AMES SALMONELLA TYPHIMURIUM, Strain/Indicator: TA98, Metabolic Activation: NONE, Method: STANDARD PLATE
smiles,measurement,setting,value
C=C(C)C(=O)OCCN(C)C,mutagenic call,[1],inactive; negative
same,mutagenic call,"Test System: AMES SALMONELLA TYPHIMURIUM, Strain/Indicator: TA98, Metabolic Activation: RAT LIVER S-9, PHENOBARBITAL AND BETA-NAPHTHOFLAVONE, Method: PREINCUBATION",inactive; negative
same,mutagenic call,[2],inactive; negative
same,mutagenic call,"Test System: AMES SALMONELLA TYPHIMURIUM, Strain/Indicator: TA100, Metabolic Activation: RAT LIVER S-9, PHENOBARBITAL AND BETA-NAPHTHOFLAVONE, Method: PREINCUBATION",inactive; negative
same,mutagenic call,"Test System: AMES SALMONELLA TYPHIMURIUM, Strain/Indicator: TA102, Metabolic Activation: NONE, Method: PREINCUBATION",inactive; negative
same,mutagenic call,"Test System: AMES SALMONELLA TYPHIMURIUM, Strain/Indicator: TA102, Metabolic Activation: RAT LIVER S-9, PHENOBARBITAL AND BETA-NAPHTHOFLAVONE, Method: PREINCUBATION",inactive; negative
same,mutagenic call,"Test System: AMES SALMONELLA TYPHIMURIUM, Strain/Indicator: TA104, Metabolic Activation: NONE, Method: PREINCUBATION",inactive; negative
same,mutagenic call,"Test System: AMES SALMONELLA TYPHIMURIUM, Strain/Indicator: TA104, Metabolic Activation: RAT LIVER S-9, PHENOBARBITAL AND BETA-NAPHTHOFLAVONE, Method: PREINCUBATION",active; positive
same,mutagenic call,[3],inactive; negative
same,mutagenic call,"Test System: AMES SALMONELLA TYPHIMURIUM, Strain/Indicator: TA1535, Metabolic Activation: RAT LIVER S-9, PHENOBARBITAL AND BETA-NAPHTHOFLAVONE, Method: PREINCUBATION",inactive; negative
same,mutagenic call,[4],inactive; negative
same,mutagenic call,"Test System: AMES SALMONELLA TYPHIMURIUM, Strain/Indicator: TA1537, Metabolic Activation: RAT LIVER S-9, PHENOBARBITAL AND BETA-NAPHTHOFLAVONE, Method: PREINCUBATION",inactive; negative
same,mutagenic call,"Test System: E.COLI, Strain/Indicator: WP2UVRA/PKM101, Metabolic Activation: NONE, Method: PREINCUBATION",inactive; negative
same,mutagenic call,"Test System: E.COLI, Strain/Indicator: WP2UVRA/PKM101, Metabolic Activation: RAT LIVER S-9, PHENOBARBITAL AND BETA-NAPHTHOFLAVONE, Method: PREINCUBATION",inactive; negative
same,mutagenic call,"Test System: E.COLI, Strain/Indicator: WP2UVRA, Metabolic Activation: NONE, Method: PREINCUBATION",inactive; negative
same,mutagenic call,"Test System: E.COLI, Strain/Indicator: WP2UVRA, Metabolic Activation: RAT LIVER S-9, PHENOBARBITAL AND BETA-NAPHTHOFLAVONE, Method: PREINCUBATION",inactive; negative
Cc1cc([N+](=O)[O-])ccc1N,mutagenic call,"End Point: IN VITRO CHROMOSOMAL ABERRATIONS, Test System: CHL CELLS, Metabolic Activation: NONE",active; positive (ploidy changes)
same,mutagenic call,[5],inactive; negative; authors report equivocal results for ploidy changes at 0.25 mg/ml and
same,mutagenic call,"End Point: IN VITRO CHROMOSOMAL ABERRATIONS, Test System: CHL/IU CELLS, Metabolic Activation: NONE",active; positive (numerical aberrations)
same,mutagenic call,"End Point: IN VITRO MICRONUCLEUS, Test System: CHL/IU CELLS, Metabolic Activation: NONE",inactive; negative
same,mutagenic call,"Test System: AMES SALMONELLA TYPHIMURIUM, Strain/Indicator: TA98, Metabolic Activation: RAT, LIVER, S-9, PCB, Method: PREINCUBATION",inactive; negative
same,mutagenic call,[2],inactive; negative
same,mutagenic call,"Test System: AMES SALMONELLA TYPHIMURIUM, Strain/Indicator: TA100, Metabolic Activation: RAT, LIVER, S-9, KANECHLOR 500, Method: PREINCUBATION",inactive; negative
same,mutagenic call,"Test System: UDS RODENT HEPATOCYTES, Strain/Indicator: THY INCORP (NON-S-PHASE), Metabolic Activation: NONE, Method: AUTORADIOGRAPHY",inactive; negative
COc1cc(-c2ccc(N/N=C3\C=C(S(=O)(=O)O)c4ccccc4C3=O)c(OC)c2)ccc1N=Nc1cc(S(=O)(=O)O)c2ccccc2c1N,mutagenic call,"Test System: AMES SALMONELLA TYPHIMURIUM, Strain/Indicator: TA97, Metabolic Activation: HAMSTER, LIVER, S-9, AROCLOR 1254 (10 OR 30%), Method: PREINCUBATION",inactive; negative
same,mutagenic call,"Test System: AMES SALMONELLA TYPHIMURIUM, Strain/Indicator: TA97, Metabolic Activation: NONE, Method: PREINCUBATION",inactive; negative
same,mutagenic call,"Test System: AMES SALMONELLA TYPHIMURIUM, Strain/Indicator: TA97, Metabolic Activation: RAT, LIVER, S-9, AROCLOR 1254 (10 OR 30%), Method: PREINCUBATION",inactive; negative
same,mutagenic call,"Test System: AMES SALMONELLA TYPHIMURIUM, Strain/Indicator: TA98, Metabolic Activation: HAMSTER, LIVER, S-9, AROCLOR 1254 (10 OR 30%), Method: PREINCUBATION",inactive; negative
same,mutagenic call,[1],inactive; negative
same,mutagenic call,"Test System: AMES SALMONELLA TYPHIMURIUM, Strain/Indicator: TA98, Metabolic Activation: RAT, LIVER, S-9, AROCLOR 1254 (10 OR 30%), Method: PREINCUBATION",inactive; negative
same,mutagenic call,"Test System: AMES SALMONELLA TYPHIMURIUM, Strain/Indicator: TA100, Metabolic Activation: HAMSTER, LIVER, S-9, AROCLOR 1254 (10 OR 30%), Method: PREINCUBATION",inactive; negative
same,mutagenic call,[2],inactive; negative
same,mutagenic call,"Test System: AMES SALMONELLA TYPHIMURIUM, Strain/Indicator: TA100, Metabolic Activation: RAT, LIVER, S-9, AROCLOR 1254 (10 OR 30%), Method: PREINCUBATION",inactive; negative
same,mutagenic call,"Test System: AMES SALMONELLA TYPHIMURIUM, Strain/Indicator: TA1535, Metabolic Activation: HAMSTER, LIVER, S-9, AROCLOR 1254 (10 OR 30%), Method: PREINCUBATION",inactive; negative
same,mutagenic call,[3],inactive; negative
same,mutagenic call,"Test System: AMES SALMONELLA TYPHIMURIUM, Strain/Indicator: TA1535, Metabolic Activation: RAT, LIVER, S-9, AROCLOR 1254 (10 OR 30%), Method: PREINCUBATION",inactive; negative
same,mutagenic call,"Test System: AMES SALMONELLA TYPHIMURIUM, Strain/Indicator: TA1538, Metabolic Activation: HAMSTER, LIVER, S-9, Method: STANDARD PLATE",inactive; negative
same,mutagenic call,"Test System: AMES SALMONELLA TYPHIMURIUM, Strain/Indicator: TA1538, Metabolic Activation: RAT, LIVER, S-9, AROCLOR 1254, Method: STANDARD PLATE",inactive; negative
O=NN(c1ccc([N+](=O)[O-])cc1)C1OC[C@H](O)[C@H](O)[C@H]1O (stereo partly drawn),mutagenic call,[6],active; positive
C[n+]1c2ccccc2c(N)c2ccccc21,mutagenic call,[3],active; positive
same,mutagenic call,"Test System: AMES SALMONELLA TYPHIMURIUM, Strain/Indicator: TA1535, Metabolic Activation: RAT, LIVER, S-9, TETRACHLOROBIPHENYL, Method: PREINCUBATION",active; positive
same,mutagenic call,[4],active; positive
same,mutagenic call,"Test System: AMES SALMONELLA TYPHIMURIUM, Strain/Indicator: TA1537, Metabolic Activation: RAT, LIVER, S-9, TETRACHLOROBIPHENYL, Method: PREINCUBATION",active; positive
same,mutagenic call,"Test System: AMES SALMONELLA TYPHIMURIUM, Strain/Indicator: TA1538, Metabolic Activation: NONE, Method: PREINCUBATION",inactive; negative
same,mutagenic call,"Test System: AMES SALMONELLA TYPHIMURIUM, Strain/Indicator: TA1538, Metabolic Activation: RAT, LIVER, S-9, TETRACHLOROBIPHENYL, Method: PREINCUBATION",inactive; negative
same,mutagenic call,"Test System: AMES SALMONELLA TYPHIMURIUM, Strain/Indicator: TA1977, Metabolic Activation: NONE, Method: PREINCUBATION",active; positive
same,mutagenic call,"Test System: AMES SALMONELLA TYPHIMURIUM, Strain/Indicator: TA1977, Metabolic Activation: RAT, LIVER, S-9, TETRACHLOROBIPHENYL, Method: PREINCUBATION",active; positive
Cn1c(N=[N+]=[N-])nc2c3ccccc3ccc21,mutagenic call,"Test System: AMES SALMONELLA TYPHIMURIUM, Strain/Indicator: TA98(1,8-DNP6), Metabolic Activation: NONE, Method: STANDARD PLATE",active; positive
same,mutagenic call,[7],active; positive
C[C@H]1[C@H](O)CCC2=CC(=O)[C@]3([C@@]4(CO)CO4)O[C@@H]3[C@@]21C,mutagenic call,[6],active; positive
same,mutagenic call,"Test System: E. COLI, Strain/Indicator: WP2 UVRA, Metabolic Activation: NONE, Method: STANDARD PLATE",active; positive
C=C(C)C1CCC(=C)C2C3=C(C[C@@H](C)C3=O)C(=O)C(C)=C[C@@H]12 (stereo partly drawn),mutagenic call,[7],inactive; negative
same,mutagenic call,"Test System: AMES SALMONELLA TYPHIMURIUM, Strain/Indicator: TA98, Method: STANDARD PLATE",inactive; negative
same,mutagenic call,[6],inactive; negative
same,mutagenic call,"Test System: AMES SALMONELLA TYPHIMURIUM, Strain/Indicator: TA100, Method: STANDARD PLATE",inactive; negative
c1ccc(Cc2ccc(OCC3CO3)cc2)cc1 (stereo not drawn),mutagenic call,[6],active; positive
same,mutagenic call,"Test System: AMES SALMONELLA TYPHIMURIUM, Strain/Indicator: TA1535, Metabolic Activation: NONE, Method: STANDARD PLATE",active; positive
CCN(CC)c1ccc(N=Nc2sc(C=O)c(Cl)c2C#N)c(NC(=O)COC)c1,mutagenic call,[5],inactive; negative; precipitation occurred at all doses
